Patent US20240116985A1, “STAPLED PEPTIDES AND METHODS THEREOF” (priority 2020, published 2024)
Where two headings read alike, the source gives them in different places.

Experiments:
[1] = target: T1, beta-catenin/TCF4 engagement (Homo sapiens, UniProt P35222); assay: Nano-BRET target engagement assay (B-cat-Halo & TCF4-Luc in HEK293 cells); format: cell-based; details: read-out: NanoBRET Abs IC50
T1 construct: expressed in transfected cells; host or cells: HEK293
T1 sequence (P35222 1-781): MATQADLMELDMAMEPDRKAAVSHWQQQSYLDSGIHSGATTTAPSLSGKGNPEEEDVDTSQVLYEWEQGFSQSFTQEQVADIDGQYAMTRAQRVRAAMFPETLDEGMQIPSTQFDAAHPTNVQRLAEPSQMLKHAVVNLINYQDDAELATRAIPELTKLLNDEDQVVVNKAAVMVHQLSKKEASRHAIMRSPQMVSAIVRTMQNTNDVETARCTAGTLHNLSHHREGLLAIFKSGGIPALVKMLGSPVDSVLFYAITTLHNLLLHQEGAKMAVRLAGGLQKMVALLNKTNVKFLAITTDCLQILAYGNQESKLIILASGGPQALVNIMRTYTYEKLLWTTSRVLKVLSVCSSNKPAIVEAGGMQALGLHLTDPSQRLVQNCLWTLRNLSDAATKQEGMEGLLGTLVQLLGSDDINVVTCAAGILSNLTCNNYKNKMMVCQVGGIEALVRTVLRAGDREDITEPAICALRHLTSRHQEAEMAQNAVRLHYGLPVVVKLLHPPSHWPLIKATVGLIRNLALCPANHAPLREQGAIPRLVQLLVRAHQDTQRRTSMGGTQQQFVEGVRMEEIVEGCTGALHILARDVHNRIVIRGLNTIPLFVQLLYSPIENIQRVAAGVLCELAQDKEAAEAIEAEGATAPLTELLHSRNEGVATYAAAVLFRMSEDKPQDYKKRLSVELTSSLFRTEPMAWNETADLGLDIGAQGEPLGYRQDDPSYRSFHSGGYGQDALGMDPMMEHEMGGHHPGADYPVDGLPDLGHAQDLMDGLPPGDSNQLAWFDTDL

[2] = target: T2, full-length beta-Catenin (Uniprot ID P35222) (Homo sapiens, UniProt P35222); assay: Fluorescence polarization IC50 (beta-catenin / 5FAM-TCF4 10-53 competition); format: binding; details: fluorescence polarization; read-out: beta-Catenin FP IC50
T2 construct: 10 nM full-length beta-Catenin (Uniprot ID P35222)
T2 sequence (P35222 1-781): T1 sequence (P35222 1-781)

Structure (SMILES) | IC50 [1] [µM] | IC50 [2] [µM] | IC50 ([1]; absolute IC50) [µM]
CC(=O)N1CCC[C@]12CC=CCCCC1(CCCC=CCCCOC(=O)N3CC[C@@](C(=O)N[C@@H](Cc4ccccc4Cl)C(=O)N[C@@H](Cc4csc5ccccc45)C(=O)N[C@H](C(N)=O)C(C)C)(C3)NC(=O)[C@H](C)NC(=O)[C@H](Cc3ccccc3)NC(=O)[C@H](C)NC(=O)[C@H](C)NC(=O)[C@H](Cc3cccc(C(=O)O)c3)NC(=O)[C@H](CC(=O)O)NC1=O)NC(=O)[C@H](CC(C)(C)C)NC(=O)[C@H](CC(=O)O)NC2=O (stereo partly drawn) [I-2024, Ac-PL3-Asp-Npg-B5-Asp-3COOHF-Ala-Ala-Phe-Ala-PyrS2-2C1F-BztA-Val-NH2] | 17.9 | 0.078 | –
CC(=O)N1CCC[C@]12CC=CCCCC1(CCCC=CCCCOC(=O)N3CC[C@@](C(=O)N[C@@H](Cc4ccccc4Cl)C(=O)N[C@@H](Cc4csc5ccccc45)C(=O)N[C@@H](CC(N)=O)C(N)=O)(C3)NC(=O)[C@H](Cc3ccccc3)NC(=O)[C@H](Cc3ccccc3)NC(=O)[C@H](C)NC(=O)[C@H](C)NC(=O)[C@H](Cc3cccc(C(=O)O)c3)NC(=O)[C@H](CC(=O)O)NC1=O)NC(=O)[C@H](CC(C)(C)C)NC(=O)[C@H](CC(=O)O)NC2=O (stereo partly drawn) [I-2037, Ac-PL3-Asp-Npg-B5-Asp-3COOHF-Ala-Ala-Phe-Phe-PyrS2-2C1F-BztA-Asn-NH2] | 5 | 0.017 | –
CC(=O)N1CCC[C@]12CC=CCCCC1(CCCC=CCCCOC(=O)N3CC[C@@](C(=O)N[C@@H](Cc4ccsc4)C(=O)N[C@@H](Cc4csc5ccccc45)C(=O)N[C@@H](C)C(N)=O)(C3)NC(=O)[C@H](CC(C)C)NC(=O)[C@H](Cc3ccccc3)NC(=O)[C@H](C)NC(=O)[C@H](CCC(N)=O)NC(=O)[C@H](Cc3cc(C(=O)O)cc(C(F)(F)F)c3)NC(=O)[C@H](CC(=O)O)NC1=O)NC(=O)[C@H](CC(C)(C)C)NC(=O)[C@H](CC(=O)O)NC2=O (stereo partly drawn) [I-2211, Ac-PL3-Asp-Npg-B5-Asp-5F3Me3COOHF-Gln-Ala-Phe-Leu-PyrS2-3Thi-BztA-Ala-NH2] | – | 0.023 | 12.9
CC(=O)N1CCC[C@]12CC=CCCCC1(CCCC=CCCCOC(=O)N3CC[C@@](C(=O)N[C@@H](Cc4ccsc4)C(=O)N[C@@H](Cc4csc5ccccc45)C(=O)N[C@@H](C)C(N)=O)(C3)NC(=O)[C@H](CC(C)C)NC(=O)[C@H](Cc3ccccc3)NC(=O)[C@H](C)NC(=O)[C@H](CO)NC(=O)[C@H](Cc3cccc(C(=O)O)c3)NC(=O)[C@H](CC(=O)O)NC1=O)NC(=O)[C@H](CC(C)(C)C)NC(=O)[C@H](CC(=O)O)NC2=O (stereo partly drawn) [I-2050, Ac-PL3-Asp-Npg-B5-Asp-3COOHF-Ser-Ala-Phe-Leu-PyrS2-3Thi-BztA-Ala-NH2] | 4.9 | 0.009 | –
CC(=O)N1CCC[C@]12CCCCCCC1(CCCCCCCCCOC(=O)N3CC[C@@](C(=O)N[C@@H](Cc4ccsc4)C(=O)N[C@@H](Cc4csc5ccccc45)C(=O)N[C@@H](CCC(N)=O)C(N)=O)(C3)NC(=O)[C@H](CC(C)C)NC(=O)[C@H](Cc3ccccc3)NC(=O)[C@H](C)NC(=O)[C@H](C)NC(=O)[C@H](CN(CC(=O)O)CC(F)(F)F)NC(=O)[C@H](CC(=O)O)NC1=O)NC(=O)[C@H](CC(C)(C)C)NC(=O)[C@H](CC(=O)O)NC2=O (stereo partly drawn) [I-1697, Ac-PL3-Asp-Npg-B5-Asp-TfeGA-Ala-Ala-Phe-Leu-PyrS3-3Thi-BztA-Gln-NH2] | – | 0.179 | > 20
CC(=O)N1CCC[C@]12CC=CCCCC1(CCCC=CCCCOC(=O)N3CC[C@@](C(=O)N[C@@H](Cc4ccsc4)C(=O)N[C@@H](Cc4csc5ccccc45)C(=O)N[C@@H](CCC(N)=O)C(N)=O)(C3)NC(=O)[C@H](CC(C)C)NC(=O)[C@H](Cc3ccccc3)NC(=O)[C@H](C)NC(=O)[C@H](C)NC(=O)[C@H](CC(=O)O)NC(=O)[C@H](CC(=O)O)NC1=O)NC(=O)[C@H](CCCCNC(=O)COCCOCCNC(=O)C13CC4(C)CC(C)(CC(C)(C4)C1)C3)NC(=O)[C@H](CC(=O)O)NC2=O (stereo partly drawn) [I-1472, Ac-PL3-Asp-[Me3AdamantC-PEG2]-Lys-B5-Asp-Asp-Ala-Ala-Phe-Leu-PyrS2-3Thi-BztA-Gln-NH2] | – | 0.012 | > 20
C[C@@H]1NC(=O)[C@H](C)NC(=O)[C@H](CC(=O)O)NC(=O)[C@H](CC(=O)O)NC(=O)C2(CCCC=CCCCOC(=O)N3CC[C@@](C(=O)N[C@@H](Cc4ccccc4Cl)C(=O)N[C@@H](Cc4csc5ccccc45)C(=O)N[C@@H](C(N)=O)[C@H](C)O)(C3)NC(=O)[C@H](CC(N)=O)NC(=O)[C@H](Cc3ccccc3)NC1=O)CCCC=CC[C@]1(CCCN1S(C)(=O)=O)C(=O)N[C@@H](CC(=O)O)C(=O)N[C@@H](CC(C)(C)C)C(=O)N2 (stereo partly drawn) [I-1258, MeSO2-PL3-Asp-Npg-B5-Asp-Asp-Ala-Ala-Phe-Asn-PyrS2-2C1F-BztA-dThr-NH2] | – | 0.017 | > 20
CC(=O)N1CCC[C@]12CC=CCCCC1(CCCC=CCCCOC(=O)N3CC[C@@](C(=O)N[C@@H](Cc4ccsc4)C(=O)N[C@@H](Cc4ccc(Cl)c(Cl)c4)C(=O)N[C@@H](CCC(N)=O)C(N)=O)(C3)NC(=O)[C@H](CC(C)C)NC(=O)[C@H](Cc3ccccc3)NC(=O)[C@H](C)NC(=O)[C@H](C)NC(=O)[C@H](CC(=O)O)NC(=O)[C@H](CC(=O)O)NC1=O)NC(=O)[C@H](CC(C)(C)C)NC(=O)[C@H](CC(=O)O)NC2=O (stereo partly drawn) [I-2183, Ac-PL3-Asp-Npg-B5-Asp-Asp-Ala-Ala-Phe-Leu-PyrS2-3Thi-34C1F-Gln-NH2] | 5 | 0.005 | –

The remaining lines, values ahead:

IC50 [1] [µM] | IC50 [2] [µM] | IC50 ([1]; absolute IC50) [µM] | Structure (SMILES)
– | 0.061 | 30 | CC(=O)N1CCC[C@]12CC=CCCCCC1(CCCCC=CCCCOC(=O)N3CC[C@@](C(=O)N[C@@H](Cc4ccccc4C(F)(F)F)C(=O)N[C@@H](Cc4csc5ccccc45)C(=O)N[C@@H](C)C(N)=O)(C3)NC(=O)[C@H](CC(C)C)NC(=O)[C@H](Cc3ccccc3)NC(=O)[C@H](C)NC(=O)[C@H](CCC(N)=O)NC(=O)[C@H](Cc3cccc(C(=O)O)c3)NC(=O)[C@H](CC(=O)O)NC1=O)NC(=O)[C@H](CC(C)(C)C)NC(=O)[C@H](CC(=O)O)NC2=O (stereo partly drawn) [I-2517, Ac-PL3-Asp-Npg-B6-Asp-3COOHF-Gln-Ala-Phe-Leu-PyrS2-2F3MeF-BztA-Ala-NH2]
– | 0.005 | 4.9 | CC(=O)N1CCC[C@]12CC=CCCCC1(CCCC=CCCCOC(=O)N3CC[C@@](C(=O)N[C@@H](Cc4ccsc4)C(=O)N[C@@H](Cc4ccc(C)c(C)c4)C(=O)N[C@@H](CCC(N)=O)C(N)=O)(C3)NC(=O)[C@H](CC(C)C)NC(=O)[C@H](Cc3ccccc3)NC(=O)[C@H](C)NC(=O)[C@H](C)NC(=O)[C@H](Cc3cccc(C(=O)O)c3)NC(=O)[C@H](CC(=O)O)NC1=O)NC(=O)[C@H](CC(C)(C)C)NC(=O)[C@H](CC(=O)O)NC2=O (stereo partly drawn) [I-2291, Ac-PL3-Asp-Npg-B5-Asp-3COOHF-Ala-Ala-Phe-Leu-PyrS2-3Thi-34MeF-Gln-NH2]
– | 0.138 | 4.3 | CC(=O)N1CCC[C@]12CC=CCCCC1(CCCC=CCCCOC(=O)N3CC[C@@](C(=O)N[C@@H](Cc4ccsc4)C(=O)N[C@@H](Cc4csc5ccccc45)C(=O)N[C@@H](CC(N)=O)C(=O)N[C@@H](C)C(=O)N[C@@H](CC(C)C)C(=O)N[C@@H](C)C(=O)N[C@@H](CC(C)C)C(=O)N[C@@H](C)C(N)=O)(C3)NC(=O)[C@H](CC(C)C)NC(=O)[C@H](Cc3ccccc3)NC(=O)[C@H](C)NC(=O)[C@H](C)NC(=O)[C@H](Cc3cccc(C(=O)O)c3)NC(=O)[C@H](CC(=O)O)NC1=O)NC(=O)[C@H](CC(C)(C)C)NC(=O)[C@H](CC(=O)O)NC2=O (stereo partly drawn) [I-2281, Ac-PL3-Asp-Npg-B5-Asp-3COOHF-Ala-Ala-Phe-Leu-PyrS2-3Thi-BztA-Asn-Ala-Leu-Ala-Leu-Ala-NH2]
– | 0.042 | > 20 | CC(=O)N1CCC[C@]12CC=CCCCC1(CCCC=CCCCOC(=O)N3CC[C@@](C(=O)N[C@@H](Cc4ccccc4)C(=O)N[C@@H](Cc4csc5ccccc45)C(=O)N[C@@H](CCC(N)=O)C(N)=O)(C3)NC(=O)[C@H](CC(C)C)NC(=O)[C@H](Cc3ccccc3)NC(=O)[C@H](C)NC(=O)[C@H](CCCCNC(C)C)NC(=O)[C@H](CN(CC(=O)O)CC(F)(F)F)NC(=O)[C@H](CC(=O)O)NC1=O)NC(=O)[C@H](CC1CCCCC1)NC(=O)[C@H](CC(N)=O)NC2=O (stereo partly drawn) [I-2341, Ac-PL3-Asn-Cha-B5-Asp-TfeGA-iPrLys-Ala-Phe-Leu-PyrS2-Phe-BztA-Gln-NH2]
– | 0.066 | > 20 | CC(=O)N1CCC[C@]12CC=CCCCCC1(CCCCC=CCCCOC(=O)N3CC[C@@](C(=O)N[C@@H](Cc4ccccc4C(F)(F)F)C(=O)N[C@@H](Cc4csc5ccccc45)C(=O)N[C@@H](CCC(N)=O)C(N)=O)(C3)NC(=O)[C@H](CC(C)C)NC(=O)[C@H](Cc3ccccc3)NC(=O)[C@H](C)NC(=O)[C@H](C)NC(=O)[C@H](Cc3cccc(C(=O)O)c3)NC(=O)[C@H](CC(=O)O)NC1=O)NC(=O)[C@H](CC(C)(C)C)NC(=O)[C@H](CC(=O)O)NC2=O (stereo partly drawn) [I-2513, Ac-PL3-Asp-Npg-B6-Asp-3COOHF-Ala-Ala-Phe-Leu-PyrS2-2F3MeF-BztA-Gln-NH2]
